{"source": "patent US5212187A", "about": "“Pyridyl alkylamine compounds which are useful against histamine H1 and H2 receptors” (Zyma SA, priority 1991, dated 1993)", "key": {"histamine H1 -receptors": {"biological_target": "T1, histamine H1 -receptors (Cavia porcellus, UniProt P31389)", "T1 construct": "isolated guinea pig ileum (H1); from tissue; host or cells: isolated guinea pig ileum", "T1 sequence (P31389 whole entry)": "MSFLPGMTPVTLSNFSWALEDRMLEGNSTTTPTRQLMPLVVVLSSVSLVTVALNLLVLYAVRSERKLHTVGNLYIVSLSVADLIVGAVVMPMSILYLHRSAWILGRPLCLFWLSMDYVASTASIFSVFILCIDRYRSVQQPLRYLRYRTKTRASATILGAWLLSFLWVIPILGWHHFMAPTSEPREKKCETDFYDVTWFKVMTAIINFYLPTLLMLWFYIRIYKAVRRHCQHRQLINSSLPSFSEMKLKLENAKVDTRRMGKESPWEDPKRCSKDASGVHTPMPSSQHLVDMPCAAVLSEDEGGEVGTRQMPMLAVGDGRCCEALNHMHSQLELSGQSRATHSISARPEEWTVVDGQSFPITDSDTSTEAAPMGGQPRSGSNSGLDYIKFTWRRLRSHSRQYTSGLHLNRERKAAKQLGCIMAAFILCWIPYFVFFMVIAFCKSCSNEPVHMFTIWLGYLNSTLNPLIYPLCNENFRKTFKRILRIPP", "assay": "in vitro histamine H1-antagonism on isolated guinea pig ileum", "conditions": "cumulative concentration/action curves (van Rossum), read-out: H1 -antagonism ileum -log KB (converted)", "from_the_text": "(§1) The compounds of formula I according to the invention are distinguished by a novel overall pharmacological activity that has not been described hitherto. […] Suitable for differentiating the two types of action are, for example, in vitro tests on isolated spontaneously beating guinea pig right atrium (H2) and on isolated guinea pig ileum (H1) (Black, J. W.; Duncan, W. A. M.; Durant, G. J., Ganellin, C. R.; Parsons, M. E. (1972), \"Definition and Antagonism of Histamine H2 -receptors\", Nature 236, 385-390). The concentration/action curves for determining the pharmacological parameters (-log KB) are recorded using a cumulative technique according to van Rossum, J. M. (1963), \"Cumulative Dose-Response Curves. II. Technique for the Making of Dose-Response Curves in Isolated Organs and the Evaluation of Drug Parameters\", Arch. Int. Pharmacodyn. Ther. 143, 299-307.\n(§2) (determined from isolated guinea pig ileum and atrium, […]"}, "histamine H2 -receptors": {"biological_target": "T2, histamine H2 -receptors (Cavia porcellus, UniProt P47747)", "T2 construct": "isolated spontaneously beating guinea pig right atrium (H2); from tissue; host or cells: isolated spontaneously beating guinea pig right atrium", "T2 sequence (P47747 whole entry)": "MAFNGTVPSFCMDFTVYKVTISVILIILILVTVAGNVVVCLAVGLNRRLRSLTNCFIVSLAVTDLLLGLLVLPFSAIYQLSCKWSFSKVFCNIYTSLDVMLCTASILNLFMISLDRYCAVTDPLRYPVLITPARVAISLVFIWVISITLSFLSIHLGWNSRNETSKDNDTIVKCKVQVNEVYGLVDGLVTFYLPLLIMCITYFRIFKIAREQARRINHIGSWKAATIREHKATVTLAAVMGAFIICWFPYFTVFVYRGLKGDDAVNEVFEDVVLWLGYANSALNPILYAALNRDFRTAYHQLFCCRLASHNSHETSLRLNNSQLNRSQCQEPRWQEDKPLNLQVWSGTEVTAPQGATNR", "assay": "in vitro histamine H2-antagonism on isolated spontaneously beating guinea pig right atrium", "conditions": "cumulative concentration/action curves (van Rossum), read-out: H2 -antagonism atrium -log KB (converted)", "from_the_text": "as §1, §2"}}}
{"smiles": "CN(CCNC(=NCCCCOc1cccc(CN2CCCCC2)c1)NC#N)CCC(c1ccc(Cl)cc1)c1ccccn1", "note": "(stereo not shown) [Example 1, N-[2-[N-[3-(4-chlorophenyl)-3-(2-pyridyl)propyl]-N-methylamino]ethyl]-N'-cyano-N\"-[4-[3-(piperidinomethyl)phenoxy]butyl]guanidine]", "values": [{"measurement": "Kb", "setting": "histamine H1 -receptors", "result": 63.1, "unit": "nM"}, {"measurement": "Kb", "setting": "histamine H2 -receptors", "result": 2290, "unit": "nM"}]}
{"smiles": "CN(CCCCNC(=NCCCOc1cccc(CN2CCCCC2)c1)NC#N)CCC(c1ccccc1)c1ccccn1", "note": "(stereo not shown) [Example 9, N-cyano-N'-[4-[N-[3-phenyl-3-(2-pyridyl)propyl]-N-methylamino]butyl]-N\"-[3-[3-(piperidinomethyl)phenoxy]propyl]guanidine]", "values": [{"measurement": "Kb", "setting": "histamine H1 -receptors", "result": 11.7, "unit": "nM"}, {"measurement": "Kb", "setting": "histamine H2 -receptors", "result": 501, "unit": "nM"}]}
{"smiles": "CN(CCCNC(=NCCCOc1cccc(CN2CCCCC2)c1)NC#N)CCC(c1ccccc1)c1ccccn1", "note": "(stereo not shown) [Example 10, N-cyano-N'-[3-[N-[3-phenyl-3-(2-pyridyl)propyl]-N-methylamino]propyl]-N\"-[3-[3-(piperidinomethyl)phenoxy]propyl]guanidine]", "values": [{"measurement": "Kb", "setting": "histamine H1 -receptors", "result": 6.46, "unit": "nM"}, {"measurement": "Kb", "setting": "histamine H2 -receptors", "result": 1480, "unit": "nM"}]}
{"smiles": "CN(CCCCNC(=NCCSCc1csc(NC(=N)N)n1)NC#N)CCC(c1ccc(Cl)cc1)c1ccccn1", "note": "(stereo not shown) [Example 17, N-[4-[N-[3-(4-chlorophenyl)-3-(2-pyridyl)propyl]-N-methylamino]butyl]-N'-cyano-N\"-[2-[[(2-guanidino-4-thiazolyl)methyl]thio]ethyl]guanidine]", "values": [{"measurement": "Kb", "setting": "histamine H1 -receptors", "result": 5.01, "unit": "nM"}, {"measurement": "Kb", "setting": "histamine H2 -receptors", "result": 166, "unit": "nM"}]}
{"smiles": "CN(CCCCCNC(=NCCSCc1csc(NC(=N)N)n1)NC#N)CCC(c1ccc(Cl)cc1)c1ccccn1", "note": "(stereo not shown) [Example 18, N-[5-[N-[3-(4-chlorophenyl)-3-(2-pyridyl)propyl]-N-methylamino]pentyl]-N'-cyano-N\"-[2-[[(2-guanidino-4-thiazolyl)methyl]thio]ethyl]guanidine]", "values": [{"measurement": "Kb", "setting": "histamine H1 -receptors", "result": 3.72, "unit": "nM"}, {"measurement": "Kb", "setting": "histamine H2 -receptors", "result": 126, "unit": "nM"}]}
{"smiles": "CN(CCCCCCCNC(=NCCSCc1csc(NC(=N)N)n1)NC#N)CCC(c1ccc(Cl)cc1)c1ccccn1", "note": "(stereo not shown) [Example 20, N-[7-[N-[3-(4-chlorophenyl)-3-(2-pyridyl)propyl]-N-methylamino]heptyl]-N'-cyano-N\"-[2-[[(2-guanidino-4-thiazolyl)methyl]thio]ethyl]guanidine]", "values": [{"measurement": "Kb", "setting": "histamine H1 -receptors", "result": 4.17, "unit": "nM"}, {"measurement": "Kb", "setting": "histamine H2 -receptors", "result": 30.9, "unit": "nM"}]}
{"smiles": "CN(CCCCCCCNC(=C[N+](=O)[O-])NCCSCc1csc(NC(=N)N)n1)CCC(c1ccc(Cl)cc1)c1ccccn1", "note": "(stereo not shown) [Example 23, N-[7-[N-[3-(4-chlorophenyl)-3-(2-pyridyl)propyl]-N-methylamino]heptyl]-N'-[2-[[(2-guanidino-4-thiazolyl)methyl]thio]ethyl]-2-nitro-1,1-ethenediamine]", "values": [{"measurement": "Kb", "setting": "histamine H1 -receptors", "result": 5.01, "unit": "nM"}, {"measurement": "Kb", "setting": "histamine H2 -receptors", "result": 12.6, "unit": "nM"}]}
{"smiles": "CN(CCCNC(=O)NCCCOc1cccc(CN2CCCCC2)c1)CCC(c1ccc(F)cc1)c1ccccn1", "note": "(stereo not shown) [Example 30, N-[3-[N-[3-(4-fluorophenyl)-3-(2-pyridyl)propyl]-N-methylamino]propyl]-N'-[3-[3-(piperidinomethyl)phenoxy]propyl]urea]", "values": [{"measurement": "Kb", "setting": "histamine H1 -receptors", "result": 6.17, "unit": "nM"}, {"measurement": "Kb", "setting": "histamine H2 -receptors", "result": 209, "unit": "nM"}]}
{"smiles": "CN(CCCCCCCCNC(=O)NCCSCc1csc(NC(=N)N)n1)CCC(c1ccc(Cl)cc1)c1ccccn1", "note": "(stereo not shown) [Example 35, N-[8-[N-[3-(4-chlorophenyl)-3-(2-pyridyl)propyl]-N-methylamino]octyl]-N'-[2-[[(2-guanidino-4-thiazolyl)methyl]thio]ethyl]urea]", "values": [{"measurement": "Kb", "setting": "histamine H1 -receptors", "result": 13.8, "unit": "nM"}, {"measurement": "Kb", "setting": "histamine H2 -receptors", "result": 39.8, "unit": "nM"}]}
{"smiles": "CN(CCCCCCCNC(=O)NCCSCc1csc(NC(=N)N)n1)CCC(c1ccc(Cl)cc1)c1ccccn1", "note": "(stereo not shown) [Example 36, N-[7-[N-[3-(4-chlorophenyl)-3-(2-pyridyl)propyl]-N-methylamino]heptyl]-N'-[2-[[(2-guanidino-4-thiazolyl)methyl]thio]ethyl]urea]", "values": [{"measurement": "Kb", "setting": "histamine H1 -receptors", "result": 5.37, "unit": "nM"}, {"measurement": "Kb", "setting": "histamine H2 -receptors", "result": 26.9, "unit": "nM"}]}
{"smiles": "CN(CCCCCCNC(=O)NCCSCc1csc(NC(=N)N)n1)CCC(c1ccc(Cl)cc1)c1ccccn1", "note": "(stereo not shown) [Example 37, N-[6-[N-[3-(4-chlorophenyl)-3-(2-pyridyl)propyl]-N-methylamino]hexyl]-N'-[2-[[(2-guanidino-4-thiazolyl)methyl]thio]ethyl]urea]", "values": [{"measurement": "Kb", "setting": "histamine H1 -receptors", "result": 7.41, "unit": "nM"}, {"measurement": "Kb", "setting": "histamine H2 -receptors", "result": 123, "unit": "nM"}]}
{"smiles": "CN(CCCCCCCNC(=S)NCCSCc1csc(NC(=N)N)n1)CCC(c1ccc(Cl)cc1)c1ccccn1", "note": "(stereo not shown) [Example 48, N-[7-[N-[3-(4-chlorophenyl)-3-(2-pyridyl)propyl]-N-methylamino]heptyl]-N'-[2-[[(2-guanidino-4-thiazolyl)methyl]thio]ethyl]thiourea]", "values": [{"measurement": "Kb", "setting": "histamine H1 -receptors", "result": 20, "unit": "nM"}, {"measurement": "Kb", "setting": "histamine H2 -receptors", "result": 60.3, "unit": "nM"}]}
{"smiles": "Cc1[nH]cnc1CSCCNC(=O)NCCCN(C)CCC(c1ccc(Cl)cc1)c1ccccn1", "note": "(stereo not shown) [Example 50, N-[3-[N-[3-(4-chlorophenyl)-3-(2-pyridyl)propyl]-N-methylamino]propyl]-N'-[2-[[(5-methylimidazol-4-yl)methyl]thio]ethyl]urea]", "values": [{"measurement": "Kb", "setting": "histamine H1 -receptors", "result": 7.08, "unit": "nM"}, {"measurement": "Kb", "setting": "histamine H2 -receptors", "result": 6460, "unit": "nM"}]}
{"smiles": "COc1ccc(CN(CCN(C)CCCCCCNC(=NCCCOc2cccc(CN3CCCCC3)c2)NC#N)c2ccccn2)cc1", "note": "[Example 55, N-cyano-N'-[6-[N-[2-[N-(4-methoxybenzyl)-N-(2-pyridyl)amino]ethyl]-N-methylamino]hexyl]-N\"-[3-[3-(piperidinomethyl)phenoxy]propyl]guanidine]", "values": [{"measurement": "Kb", "setting": "histamine H1 -receptors", "result": 7.24, "unit": "nM"}, {"measurement": "Kb", "setting": "histamine H2 -receptors", "result": 372, "unit": "nM"}]}
{"smiles": "CN(CCCCCCNC(=NCCCOc1cccc(CN2CCCCC2)c1)NC#N)CCN(Cc1ccc(F)cc1)c1ccccn1", "note": "[Example 60, N-cyano-N'-[6-[N-[2-[N-(4-fluorobenzyl)-N-(2-pyridyl)amino]ethyl]-N-methylamino]hexyl]-N\"-[3-[3-(piperidinomethyl)phenoxy]propyl]guanidine]", "values": [{"measurement": "Kb", "setting": "histamine H1 -receptors", "result": 8.71, "unit": "nM"}, {"measurement": "Kb", "setting": "histamine H2 -receptors", "result": 389, "unit": "nM"}]}
{"smiles": "COc1ccc(CN(CCN(C)CCCCCCNC(=O)NCCCOc2cccc(CN3CCCCC3)c2)c2ccccn2)cc1", "note": "[Example 66, N-[6-[N-[2-[N-(4-methoxybenzyl)-N-(2-pyridyl)amino]ethyl]-N-methylamino]hexyl]-N'-[3-[3-(piperidinomethyl)phenoxy]propyl]urea]", "values": [{"measurement": "Kb", "setting": "histamine H1 -receptors", "result": 11.2, "unit": "nM"}, {"measurement": "Kb", "setting": "histamine H2 -receptors", "result": 182, "unit": "nM"}]}
{"smiles": "CN(CCCCCNC(=O)NCCCOc1cccc(CN2CCCCC2)c1)CCN(Cc1ccc(F)cc1)c1ccccn1", "note": "[Example 70, N-[5-[N-[2-[N-(4-fluorobenzyl)-N-(2-pyridyl)amino]ethyl]-N-methylamino]-pentyl]-N'-[3-[3-(piperidinomethyl)phenoxy]propyl]urea]", "values": [{"measurement": "Kb", "setting": "histamine H1 -receptors", "result": 9.55, "unit": "nM"}, {"measurement": "Kb", "setting": "histamine H2 -receptors", "result": 135, "unit": "nM"}]}
{"smiles": "CN(CCCCCCCNC(=O)NCCCOc1cccc(CN2CCCCC2)c1)CCN(Cc1ccc(F)cc1)c1ccccn1", "note": "[Example 72, N-[7-[N-[2-[N-(4-fluorobenzyl)-N-(2-pyridyl)amino]ethyl]-N-methylamino]heptyl]-N'-[3-[3-(piperidinomethyl)phenoxy]propyl]urea]", "values": [{"measurement": "Kb", "setting": "histamine H1 -receptors", "result": 17.8, "unit": "nM"}, {"measurement": "Kb", "setting": "histamine H2 -receptors", "result": 44.7, "unit": "nM"}]}
{"smiles": "COc1ccc(CN(CCN(C)CCCCCCNC(=C[N+](=O)[O-])NCCCOc2cccc(CN3CCCCC3)c2)c2ccccn2)cc1", "note": "[Example 75, N-[6-[N-[2-[N-(4-methoxybenzyl)-N-(2-pyridyl)amino]ethyl]-N-methylamino]hexyl]-N'-[3-[3-(piperidinomethyl)phenoxy]propyl]-2-nitro-1,1-ethenediamine]", "values": [{"measurement": "Kb", "setting": "histamine H1 -receptors", "result": 12.3, "unit": "nM"}, {"measurement": "Kb", "setting": "histamine H2 -receptors", "result": 123, "unit": "nM"}]}
{"smiles": "COc1ccc(CN(CCN(C)CCCCCCN=C(NC#N)NCCSCc2csc(NC(=N)N)n2)c2ccccn2)cc1", "note": "[Example 79, N-cyano-N'-[2-[[(2-guanidino-4-thiazolyl)methyl]thio]ethyl]-N\"-[6-[N-[2-[N-(4-methoxybenzyl)-N-(2-pyridyl)amino]ethyl]-N-methylamino]hexyl]-guanidine]", "values": [{"measurement": "Kb", "setting": "histamine H1 -receptors", "result": 2.45, "unit": "nM"}, {"measurement": "Kb", "setting": "histamine H2 -receptors", "result": 245, "unit": "nM"}]}
